Results as given in patent US4510323A, “Cis-bicyclo[3.3.0]octane derivatives, medicaments containing them and processes for their preparation and use” (Gruenenthal GmbH, priority 1981, dated 1985).

Tests used:
narcotized rats [1] = test: ADP induced fall in platelet count in-vivo in narcotized rats, intravenous administration; set-up: species or system rat; conditions: urethane narcosis, 5,6-dihydroprostacyclin = 1.0
[2] = test system: conscious, spontaneous hypertensive rats; test: Blood pressure lowering activity in conscious, spontaneous hypertensive rats; assay type: in vivo, rat; conditions: intravenous; for relative activity: blood pressure lowering, conscious SHR, 5,6-dihydroprostacyclin = 1.0; for ED (20 mm Hg): Rattus norvegicus, read-out: ED20 (dose causing a drop of the diastolic blood pressure by 20 mm Hg)
Source text: Blood pressure lowering activity in conscious,
spontaneous hypertensive rats (measurement via in-
dwelling catheter, intravenous administration of the […]

[3] = target: T1, adenylate cyclase in horse thrombocytes (Equus caballus, UniProt F7CK38); test: Stimulation of adenylate cyclase (c-AMP formation from ATP) in horse thrombocytes; assay type: biochemical
T1 construct: Gs-coupled adenylate cyclase stimulation, cAMP formation from ATP as read-out
T1 sequence (F7CK38 1-384): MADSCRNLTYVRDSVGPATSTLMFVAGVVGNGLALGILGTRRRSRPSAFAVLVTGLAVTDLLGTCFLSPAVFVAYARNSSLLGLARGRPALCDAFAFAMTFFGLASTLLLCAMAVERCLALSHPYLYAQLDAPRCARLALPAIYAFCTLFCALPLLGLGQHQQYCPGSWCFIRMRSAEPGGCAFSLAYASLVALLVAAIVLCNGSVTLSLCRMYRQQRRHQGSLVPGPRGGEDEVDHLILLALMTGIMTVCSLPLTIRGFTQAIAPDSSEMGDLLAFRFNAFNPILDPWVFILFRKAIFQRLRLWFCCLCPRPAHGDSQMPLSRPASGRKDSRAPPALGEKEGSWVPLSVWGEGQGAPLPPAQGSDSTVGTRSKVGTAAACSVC
Source text: The enzyme adenylate cyclase catalyzes the formation of adenosine 3',5'-cyclic monophosphate (c-AMP) from adenosine triphosphate (ATP).
*Dose causing a threefold stimulation of the cAMP formation from ATP.

human thrombocytes = test: Inhibition of arachidonic acid induced aggregation of human thrombocytes; assay type: cell-based; conditions: for IC50: arachidonic acid induced aggregation of human thrombocytes; for relative activity: in comparison to prostacyclin = 1.0
Source text: The aggregation of human thrombocytes induced by arachidonic acid may be prevented e.g. by prostacyclin.

narcotized rats [4] = test: Thrombocyte aggregation inhibition after oral administration (ADP induced fall in thrombocyte count in-vivo) in narcotized rats; set-up: species or system rat; conditions: for % inhibition of platelet aggregation: narcotized rats (urethane)
Experimental: In this experiment the product obtained in Example 2 was administered orally in a dose of 4.64 mg/kg of narcotized rats (urethane narcosis). The thrombocyte aggregation inhibiting activity was determined at 30, 60 and 150 minutes after administration of the compound (Method: ADP induced fall in thrombocyte count in-vivo, determined by a "Technicon Autocounter").

narcotized rats [5] = test: Persistence of blood pressure lowering activity after supramaximal hypotensive dose in narcotized rats; assay type: in vivo, rat; conditions: for half time of b.p.l.a. (blood pressure lowering activity) / rate of decay of blood pressure lowering activity: 1 mg/kg intravenous, narcotized rats (pentobarbital)
Experimental: On intravenous administration of a supra-
maximal hypotensive dose (1 mg/kg) of the test com-
pounds in narcotized rats (pentobarbital narcosis) the
following persistence characteristics of the blood
pressure lowering activity ("b.p.l.a.") were observed: […]

narcotized rats [6] = test: Blood pressure lowering activity in narcotized rats (pentobarbital narcosis); assay type: in vivo, rat; conditions: intravenous; for ED (20 mm Hg): Rattus norvegicus, pentobarbital narcosis, read-out: ED20 (dose causing a drop of the diastolic blood pressure by 20 mm Hg); for relative activity: blood pressure lowering, prostacyclin = 1.0
Source text: Blood pressure lowering activity in nar-
cotized rats (pentobarbital narcosis; intravenous

narcotized rats [7] = conditions: stated as known; cited from earlier work
[8] = test system: platelet aggregation induced by arachidonic acid; conditions: in vitro, Whittle et al., page 611; cited from earlier work
[9] = conscious spontaneous hypertensive rats, indwelling catheter

| SMILES | relative activity (narcotized rats [1]) | relative activity [2] | EC200% (dose causing a threefold stimulation of the cAMP formation from ATP) [3] [µmol/L] | IC50 (human thrombocytes) [nM] | relative activity (human thrombocytes) | ED (20 mm Hg) [2, 9] [mg/kg] | further results |
| --- | --- | --- | --- | --- | --- | --- | --- |
| CCCCCC(O)C=CC1C(O)CC2OC(CCCCC(=O)O)CC21 (centres unmarked) [5,6-Dihydroprostacyclin, 5,6-dihydroprostacyclin, reference compound] | 1.0 | 1.0 | 15.0 | 180 | 0.043 |  | ED20 (dose causing a drop of the diastolic blood pressure by 20 mm Hg) [2, 9]: 0.005 mg/kg; relative activity ([3]; relative to 5,6-dihydroprostacyclin = 1.0, adenylate cyclase stimulation): 1.0 |
| CCCCC[C@H](O)/C=C/[C@@H]1[C@H]2CC(=Cc3cccc(C(=O)O)c3)C[C@H]2C[C@H]1O [Compound A, 3-(m-carboxybenzylidene)-6-beta-(3'S-hydroxy-1'E-octenyl)-7-alpha-hydroxy- cis-bicyclo[3.3.0]octane, reference compound] | 0.1 | 0.003 | 0.4 | 120 | 0.065 | 1.9 |  |
| O=C(O)c1cccc(C=C2C[C@H]3C[C@@H](O)[C@H](/C=C/[C@@H](O)C4CCCCC4)[C@H]3C2)c1 [Example 1e, 3EZ-(m-carboxybenzylidene)-6β-(3'S-hydroxy-3'-cyclohexyl-1'E-propenyl)-7α-hydroxy-cis-bicyclo[3.3.0]octane] | 1.0 | 0.068 | 0.15 | 80 | 0.098 | 0.073 |  |
| O=C(O)c1cccc(/C=C2\C[C@H]3C[C@@H](O)[C@H](/C=C/[C@@H](O)C4CCCCC4)[C@H]3C2)c1 [Example 2, 3E-(m-Carboxybenzylidene)-6β-(3'S-hydroxy-3'-cyclohexyl-1'E-propenyl)-7α-hydroxy-cis-bicyclo[3.3.0]octane] | 1.0 | 0.053 | 0.13 | 70 | 0.11 | 0.094 | % inhibition of platelet aggregation (narcotized rats [4]; 30 min after oral 4.64 mg/kg): 38%; % inhibition of platelet aggregation (narcotized rats [4]; 60 min after oral 4.64 mg/kg): 26%; % inhibition of platelet aggregation (narcotized rats [4]; 150 min after oral 4.64 mg/kg): 22%; duration of strong thrombocyte aggregation inhibition (narcotized rats [4]; oral administration): at least 2.5 hours; half time of b.p.l.a. (blood pressure lowering activity) (narcotized rats [5]): 25.96 min; rate of decay of blood pressure lowering activity (narcotized rats [5]): 2.6 % per min.; duration of action relative to prostacyclin (narcotized rats [5]; blood pressure lowering activity, from Table 5): about 5 times; ED (20 mm Hg) (narcotized rats [6]): 5.39 mg/kg; relative activity (narcotized rats [6]): 0.03 |
| O=C(O)c1cccc(C=C2CC3CC(O)C(C=CC(O)C45CC6CC(CC(C6)C4)C5)C3C2)c1 (stereo not drawn) [Example 3e, 3EZ-(m-Carboxybenzylidene)-6β-[3'S-hydroxy-3'-(1"-adamantyl)-1'E-propenyl]-7α-hydroxy-cis-bicyclo[3.3.0]octane] |  | < 0.005 | 0.18 |  |  | > 1 |  |
| CCCCC[C@H](O)/C=C/[C@@H]1[C@H]2C/C(=C/CCCC(=O)O)O[C@H]2C[C@H]1O [Prostacyclin, reference compound] |  |  |  | 7.8 |  |  | effectiveness on oral administration (narcotized rats [7]): ineffective; half time of b.p.l.a. (blood pressure lowering activity) (narcotized rats [5]): 5.89 min; rate of decay of blood pressure lowering activity (narcotized rats [5]): 11 % per min.; ED (20 mm Hg) (narcotized rats [6]): 0.16 mg/kg; relative activity (narcotized rats [6]): 1.0 |
| CCCCC[C@H](O)/C=C/[C@@H]1[C@H]2C/C(=C/CCCC(=O)O)C[C@H]2C[C@H]1O [carbacyclin] |  |  |  |  |  |  | activity relative to prostacyclin as inhibitor of platelet aggregation [8]: 0.02 times |
